In US20230002361A1, “2H-INDAZOLE DERIVATIVES AND THEIR USE IN THE TREATMENT OF DISEASE” (BIOGEN MA INC., priority 2019, published 2023):

What was measured:
MDR1 (P-gp) = target: T1, MDR1 (P-gp) (Homo sapiens, UniProt P08183); assay: MDR1-MDCK assay (efflux ratio); assay type: in vitro ADME; settings: human, MDCK-MDR1, 1 μM compound, 120 minutes incubation; read-out: MDR1-MDCK Efflux Ratio; (B-A/A-B)
T1 construct: host or cells: MDCK cells
How it was run: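 Human MDR1-transfected MDCK monolayers, cultured 7 days on transwell inserts with TEER checked, were dosed with compound at 1 μM in HBSS-HEPES. Transport was measured in both A-B and B-A directions. Efflux ratio came from the directional permeabilities, with mass balance also calculated.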

IRAK4 [1] = target: T2, IRAK4 (Homo sapiens, UniProt Q9NWZ3); assay: IRAK4 MSD Biochemical Assay (10 μM ATP, 2 h); settings: 0.1 nM IRAK4, 2 h, room temperature
T2 construct: with 0.1 nM IRAK4, 1.6 μM of biotinylated peptide substrate and 10 μM ATP
T2 sequence (Q9NWZ3 1-460): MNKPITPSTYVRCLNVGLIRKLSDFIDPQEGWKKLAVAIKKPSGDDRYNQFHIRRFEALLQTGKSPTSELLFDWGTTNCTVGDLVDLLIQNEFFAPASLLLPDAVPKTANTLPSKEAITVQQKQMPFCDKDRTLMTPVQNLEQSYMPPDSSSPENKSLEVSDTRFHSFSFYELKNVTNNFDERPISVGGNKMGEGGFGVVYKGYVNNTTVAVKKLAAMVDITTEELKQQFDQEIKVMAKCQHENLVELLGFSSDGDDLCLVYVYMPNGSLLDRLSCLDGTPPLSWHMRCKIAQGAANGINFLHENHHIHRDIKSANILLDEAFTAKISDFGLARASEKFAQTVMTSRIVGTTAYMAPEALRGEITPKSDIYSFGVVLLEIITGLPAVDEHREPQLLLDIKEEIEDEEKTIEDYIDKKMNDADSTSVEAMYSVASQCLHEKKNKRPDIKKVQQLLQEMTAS
Experimental: The 2-hour 10 μM ATP Biochemical Assay employs a MesoScale Detection (MSD) format. The kinase reaction is based on the IRAK4 phosphorylation of a biotin labeled peptide (IRAK1 activation loop sequence 360-389).
The kinase reaction in 30 μl is carried out in wells of a 384 well polypropylene assay plate, with 0.1 nM IRAK4, 1.6 μM of biotinylated peptide substrate and 10 μM ATP in 50 mM Hepes, pH 7.5, 60 mM NaCl, 5 mM MgCl2, 0.25 mM MnCl2, 2 mM DTT, 0.01% BSA, 0.01% BSA, and 1% DMSO (from compound DMSO stocks), for 2 hour at room temperature. The activity is quenched with 11 μl of 70 mM EDTA, pH 8.
To detect the phosphorylated biotinylated peptide substrate, 30 μl of the quenched reaction mixture is added to equivalent wells of a 384 well streptavidin coated MesoScale plate (Meso Scale Discovery #L21SA-1). After a 1 hour incubation of the plate for 1 hour at room temperature with gentle mixing, the plate wells are washed 3 times with 50 mM Tris, pH 7.5, 150 mM NaCl, 0.02% Tween-20.
A 25 μl volume of 1:500 anti-P-Threonine Rabbit polyclonal Antibody plus 1:500 Goat-anti-Rabbit Sulfo Tag Antibody (Meso Scale Discovery R32AB-1) in 50 mM Tris, pH 7.5, 150 mM NaCl, 0.02% Tween-20 plus 2% BSA is then added to each well. After a 1-hour incubation of the plate for 1 hour at room temperature with gentle mixing, the plate wells are washed, 3 times with 50 mM Tris, pH 7.5, 150 mM NaCl, 0.02% Tween-20. A 40 μl volume of 2×MSD Read Buffer (Meso Scale Discovery R92TC-1) is added to each well, and the plate is read immediately in an MSD Plate Reader (Meso Scale Discovery).

IRAK4 [2] = target: T2, IRAK4; assay: IRAK4 MSD Biochemical Assay (1 mM ATP, 2 h); settings: room temperature, read-out: IRAK4 MSD Biochemical Assay (1 mM ATP, 2 h) IC50
How it was run: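 Run with 1 mM ATP and […] for 2 h, then quenched with EDTA, pH 8. The phosphorylated biotinylated peptide was captured on streptavidin plates and detected with anti-phospho-threonine antibody plus Sulfo-Tag secondary by MSD electrochemiluminescence.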

T1 sequence (P08183 whole entry): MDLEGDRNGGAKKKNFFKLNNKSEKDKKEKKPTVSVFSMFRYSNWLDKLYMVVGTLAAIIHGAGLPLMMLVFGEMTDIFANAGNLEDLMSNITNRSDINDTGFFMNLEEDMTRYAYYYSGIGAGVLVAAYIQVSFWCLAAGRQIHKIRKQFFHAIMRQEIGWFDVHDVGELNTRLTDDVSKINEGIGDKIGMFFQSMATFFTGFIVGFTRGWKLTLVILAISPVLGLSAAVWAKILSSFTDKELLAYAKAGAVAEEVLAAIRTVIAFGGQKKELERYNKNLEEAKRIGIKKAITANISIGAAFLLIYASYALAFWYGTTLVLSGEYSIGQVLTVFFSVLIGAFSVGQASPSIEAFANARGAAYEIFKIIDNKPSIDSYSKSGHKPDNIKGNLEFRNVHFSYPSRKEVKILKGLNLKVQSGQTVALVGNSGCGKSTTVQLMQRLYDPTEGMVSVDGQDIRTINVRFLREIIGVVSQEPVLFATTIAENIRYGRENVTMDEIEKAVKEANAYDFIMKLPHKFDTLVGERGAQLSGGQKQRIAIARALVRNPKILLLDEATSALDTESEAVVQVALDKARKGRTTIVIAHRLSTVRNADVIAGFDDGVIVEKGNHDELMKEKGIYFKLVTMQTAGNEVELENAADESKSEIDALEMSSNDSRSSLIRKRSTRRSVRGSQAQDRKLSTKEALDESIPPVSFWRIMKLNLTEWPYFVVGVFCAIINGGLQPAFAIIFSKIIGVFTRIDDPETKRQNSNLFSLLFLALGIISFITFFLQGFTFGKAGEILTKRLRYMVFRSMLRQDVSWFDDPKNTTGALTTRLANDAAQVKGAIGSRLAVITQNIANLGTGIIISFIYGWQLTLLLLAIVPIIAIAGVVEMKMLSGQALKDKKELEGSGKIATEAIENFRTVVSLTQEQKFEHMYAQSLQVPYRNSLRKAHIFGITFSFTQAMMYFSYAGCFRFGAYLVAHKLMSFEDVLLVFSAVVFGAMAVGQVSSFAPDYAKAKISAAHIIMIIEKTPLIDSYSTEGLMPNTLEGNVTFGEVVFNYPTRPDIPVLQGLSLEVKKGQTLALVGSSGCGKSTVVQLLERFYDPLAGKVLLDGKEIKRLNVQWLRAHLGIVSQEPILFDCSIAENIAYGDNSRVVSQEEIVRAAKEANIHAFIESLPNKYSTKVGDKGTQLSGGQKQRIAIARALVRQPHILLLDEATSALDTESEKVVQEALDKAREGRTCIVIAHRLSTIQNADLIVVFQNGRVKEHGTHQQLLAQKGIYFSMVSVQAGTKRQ

Compound: COCCn1cc2cc(C(=O)Nc3cccc(C(F)F)n3)c(OC)cc2n1 [Example 10, N-(6-(difluoromethyl)pyridin-2-yl)-6-methoxy-2-(2-methoxyethyl)-2H-indazole-5-carboxamide]
- efflux ratio at 120 min, 1 μM (MDR1 (P-gp)): 0.9
- IC50 (IRAK4 [1]): 26 nM

Compound: COc1cc2nn(CC3CCOC3)cc2cc1C(=O)Nc1cccc(C(F)F)n1 (centres unmarked) [Example 11, N-(6-(difluoromethyl)pyridin-2-yl)-6-methoxy-2-((tetrahydrofuran-3-yl)methyl)-2H-indazole-5-carboxamide]
- efflux ratio at 120 min, 1 μM (MDR1 (P-gp)): 1.1
- IC50 (IRAK4 [1]): 2 nM
- IC50 (IRAK4 [2]): 6.8 nM

Compound: COc1cc2nn(CCC(C)(C)OC)cc2cc1C(=O)Nc1cccc(C(F)F)n1 [Example 12, N-(6-(difluoromethyl)pyridin-2-yl)-6-methoxy-2-(3-methoxy-3-methylbutyl)-2H-indazole-5-carboxamide]
- efflux ratio at 120 min, 1 μM (MDR1 (P-gp)): 1.4
- IC50 (IRAK4 [1]): 2 nM
- IC50 (IRAK4 [2]): 5.5 nM
